# Results from patent publication US7968556B2, “Heteroaryl compounds, compositions thereof, and methods of treatment therewith” (Signal Pharmaceuticals, LLC, priority 2006, dated 2011).
# Target: mTOR (Homo sapiens, UniProt P42345)
# Experiment: mTOR HTR-FRET Assay
# Format: biochemical
# Description: The following is an example of an assay that can be used to determine the mTOR inhibitory activity of a test compound. Reagents are prepared as follows:
# “Simple TOR buffer” (used to dilute high glycerol TOR fraction): 10 mM Tris pH 7.4, 10 mM NaCl, 0.1% Tween-20, 1 mM DTT (from 1M stock frozen at −20° C. just prior to use). For convenience a large quantity of “Simple TOR buffer” w/o DTT can be stored at 4° C. It can be brought to room temperature and DTT added just prior to dilution of TOR fraction.
# 5XKB/5XMn/5×ATP solution (used to dilute substrate GST-p70S6kin 81 a.a. just prior to use) (40 ml screen quantity shown):
# Enzyme solution: Dilute TOR fraction 1:14 in “Simple TOR Buffer”. For current lot that is 640 μg/ml TOR fraction diluted 14× to yield 45.7 μg/ml TOR in buffer (i.e. 7.85 ml TOR pooled fraction+102.1 ml Simple TOR buffer=110 ml 14× diluted TOR fraction). Each Enzyme Lot must be QC'd prior to assay.
# Substrate solution: This may be prepared just prior to assay if preferred. Dilute 5.3 mg/ml GST-p70S6kinase fragment stock to 3.5 μg/ml (97 nM) working stock in 5XKB/5XMn/5×ATP solution (i.e. 26.41 μL (5.3 mg/ml) GST-p70S6+40 ml 5XKB/5XMn/5×ATP=40 ml 3.5 μg/ml (97 nM)).
# Assay Buffer (for dilution of Antibodies used in Antibody Detection Reagent):
# Antibody Detection Reagent (this reagent should be made just prior to addition to Assay Plates):
# Using PlateTrak program (Screen) or Matrix Pipettor (SAR), 19.5 μL of diluted TOR fraction is added to assay plate in all test, reference or positive control wells. 19.5 μL of “Simple TOR buffer” is added to all negative control wells. If treating multiple plates with the same compounds, can increase volume of enzyme to multiples of 19.5 μL in a tall 384 well polypropylene plate.
# Using EP3, 0.5 μl of test, reference or control DMSO is added to each well with mixing. Plates are incubated for 30 minutes at room temperature.
# Using PlateTrak program (Screen) or Matrix Pipettor (SAR) 5 μL of 5XKB/5XMn/5×ATP/5× substrate solution is added to each well of the assay plate to start the reaction. The solutions are mixed well and incubated for 2 hours at room temperature.
# Using PlateTrak program (Screen) or Matrix Pipettor (SAR) 5 μL of 60 mM EDTA is added to stop the reaction. The solutions are mixed well and allowed to sit for 15-20 minutes before the next step.
# Using PlateTrak program (Screen) or Matrix Pipettor (SAR) 10 μl of Antibody Detection Reagent is added. The solutions are mixes well and incubated for 5 hours to O/N to allow antibodies to form complexes with phosphorylated substrate.
# Plates are read on AnalystHT using protocol Multi-Method protocol.
row,Structure (SMILES),IC50
1,"COc1ccccc1-n1c(=O)[nH]c2c(C(N)=O)nc(-c3cccc(OC(F)(F)F)c3)nc21 [Compound 34, 9-(2-methoxphenyl)-8-oxo-2-(3-(trifluoromethoxy)phenyl)-8,9-dihydro-7H-purine-6-carboxamide]",> 30 µM
2,"COc1ccccc1-n1c(=O)[nH]c2c(C(N)=O)nc(-c3cccc4ncccc34)nc21 [Compound 18, 9-(2-methoxyphenyl)-8-oxo-2-(quinolin-5-yl)-8,9-dihydro-7H-purine-6-carboxamide]",> 30 µM
3,"COc1ccccc1-n1c(=O)[nH]c2c(C(N)=O)nc(-c3cccc(C(F)(F)F)c3)nc21 [Compound 20, 9-(2-methoxyphenyl)-8-oxo-2-(3-(trifluoromethyl)phenyl)-8,9-dihydro-7H-purine-6-carboxamide]",> 30 µM
4,"COc1ccc(-c2nc(C(N)=O)c3[nH]c(=O)n(-c4ccccc4OC)c3n2)cn1 [Compound 21, 9-(2-methoxyphenyl)-2-(6-methoxypyridin-3-yl)-8-oxo-8,9-dihydro-7H-purine-6-carboxamide]",10.1 to 20 µM
5,"COc1ccccc1-n1cnc2c(C(N)=O)nc(-c3cccc(O)c3)nc21 [Compound 39, 2-(3-hydroxyphenyl)-9-(2-methoxyphenyl)-9H-purine-6-carboxamide]",10.1 to 20 µM
6,"NC(=O)c1nc(-c2cccc(O)c2)nc2c1[nH]c(=O)n2-c1ccc(C(F)(F)F)cc1 [Compound 22, 2-(3-hydroxyphenyl)-8-oxo-9-(4-(trifluoromethyl)phenyl)-8,9-dihydro-7H-purine-6-carboxamide]",> 30 µM
7,"COc1ccccc1-n1c(=O)[nH]c2c(C(N)=O)nc(C3CCN(Cc4ccccc4)CC3)nc21 [Compound 31, 2-(1-benzylpiperidin-4-yl)-9-(2-methoxyphenyl)-8-oxo-8,9-dihydro-7H-purine-6-carboxamide]",> 30 µM
8,"COc1ccccc1-n1c(=O)[nH]c2c(C(N)=O)nc(-c3cncc(F)c3)nc21 [Compound 30, 2-(5-fluoropyridin-3-yl)-9-(2-methoxyphenyl)-8-oxo-8,9-dihydro-7H-purine-6-carboxamide]",5.1 to 10 µM
9,"NC(=O)c1nc(-c2cccnc2)nc2c1[nH]c(=O)n2C1CCCCCC1 [Compound 17, 9-cycloheptyl-8-oxo-2-(pyridin-3-yl)-8-9-dihydro-7H-purine-6-carboxamide]",0.1 to 5 µM
10,"NC(=O)c1nc(-c2cccc(O)c2)nc2c1[nH]c(=O)n2-c1ccccc1OC(F)(F)F [Compound 24, 2-(3-hydroxyphenyl)-8-oxo-9-(2-(trifluoromethoxy)phenyl)-8,9-dihydro-7H-purine-6-carboxamide]",5.1 to 10 µM

# System: not given
# Experiment: not given
row,Structure (SMILES),melting point
1,"COc1ccccc1-n1c(=O)[nH]c2c(C(N)=O)nc(-c3cccc(OC(F)(F)F)c3)nc21 [Compound 34, 9-(2-methoxphenyl)-8-oxo-2-(3-(trifluoromethoxy)phenyl)-8,9-dihydro-7H-purine-6-carboxamide]",269 to 272 °C
2,"COc1ccccc1-n1c(=O)[nH]c2c(C(N)=O)nc(-c3cccc4ncccc34)nc21 [Compound 18, 9-(2-methoxyphenyl)-8-oxo-2-(quinolin-5-yl)-8,9-dihydro-7H-purine-6-carboxamide]",335 to 337 °C
3,"COc1ccccc1-n1c(=O)[nH]c2c(C(N)=O)nc(-c3cccc(C(F)(F)F)c3)nc21 [Compound 20, 9-(2-methoxyphenyl)-8-oxo-2-(3-(trifluoromethyl)phenyl)-8,9-dihydro-7H-purine-6-carboxamide]",271 to 275 °C
4,"COc1ccccc1-n1cnc2c(C(N)=O)nc(-c3cccc(O)c3)nc21 [Compound 39, 2-(3-hydroxyphenyl)-9-(2-methoxyphenyl)-9H-purine-6-carboxamide]",257 to 259 °C
5,"COc1ccccc1-n1c(=O)[nH]c2c(C(N)=O)nc(-c3cccc4[nH]ncc34)nc21 [Compound 128, 2-(1H-Indazol-4-yl)-9-(2-methoxyphenyl)-8-oxo-8,9-dihydro-7H-purine-6-carboxamide]",280 °C
6,"COc1ccccc1-n1c(=O)[nH]c2c(C(N)=O)nc(N[C@H]3CC[C@@H](O)CC3)nc21 [Compound 110, 2-(cis-4-Hydroxycyclohexylamino)-9-(2-methoxyphenyl)-8-oxo-8,9-dihydro-7H-purine-6-carboxamide]",295 to 297 °C
7,"NC(=O)c1nc(-c2cnccc2Cl)nc2c1[nH]c(=O)n2-c1ccccc1C(F)(F)F [Compound 109, 2-(4-Chloropyridin-3-yl)-8-oxo-9-(2-(trifluoromethyl)phenyl)-8,9-dihydro-7H-purine-6-carboxamide]",244 to 248 °C (dec.)
8,"COc1ccccc1-n1c(=O)[nH]c2c(C(N)=O)nc(-c3ccc4nc(C(F)(F)F)[nH]c4c3)nc21 [Compound 117, 9-(2-Methoxyphenyl)-8-oxo-2-(2-(trifluoromethyl)-1H-benzo[d]imidazol-6-yl)-8,9-dihydro-7H-purine-6-carboxamide]",220 to 222 °C
9,"NC(=O)c1nc(-c2cccc(O)c2)nc2c1[nH]c(=O)n2-c1ccccc1Oc1ccccc1 [Compound 126, 2-(3-Hydroxyphenyl)-8-oxo-9-(2-phenoxyphenyl)-8,9-dihydro-7H-purine-6-carboxamide]",329 to 331 °C
10,"COc1ccccc1-n1cnc2c(C(N)=O)nc(-c3ccccc3O)nc21 [Compound 70, 2-(2-Hydroxyphenyl)-9-(2-methoxyphenyl)purine-6-carboxamide]",278 to 280 °C
11,"CC(C)c1ccccc1-n1c(=O)[nH]c2c(C(N)=O)nc(-c3ccc4[nH]ccc4c3)nc21 [Compound 139, 2-(1H-Indol-5-yl)-9-(2-isopropylphenyl)-8-oxo-8,9-dihydro-7H-purine-6-carboxamide]",310 °C (dec.)
12,"COC(=O)c1cccc(-c2nc(C(N)=O)c3[nH]c(=O)n(-c4ccccc4OC)c3n2)c1 [Compound 61, Methyl 3-(6-carbamoyl-9-(2-methoxyphenyl)-8-oxo-8,9-dihydro-7H-purin-2-yl)benzoate]",265 to 266 °C
13,"CC(C)Cc1ccccc1-n1c(=O)[nH]c2c(C(N)=O)nc(-c3cccc(O)c3)nc21 [Compound 161, 2-(3-Hydroxyphenyl)-9-(2-isobutylphenyl)-8-oxo-8,9-dihydro-7H-purine-6-carboxamide]",> 260 °C
14,"COc1ccccc1-n1c(=O)[nH]c2c(C(N)=O)nc(-c3ccc(C(N)=O)cc3)nc21 [Compound 65, 2-(4-Carbamoylphenyl)-9-(2-methoxyphenyl)-8-oxo-8,9-dihydro-7H-purine-6-carboxamide]",> 350 °C
15,"COc1ccccc1-n1c(=O)[nH]c2c(C(N)=O)nc(NCCO)nc21 [Compound 116, 2-(2-Hydroxyethylamino)-9-(2-methoxyphenyl)-8-oxo-8,9-dihydro-7H-purine-6-carboxamide]",157 to 160 °C
16,"CO[C@H]1CC[C@@H](n2c(=O)[nH]c3c(C(N)=O)nc(-c4cnc5nc[nH]c5c4)nc32)CC1 [Compound 168, 2-(1H-Imidazo[4,5-b]pyridin-6-yl)-9-(cis-4-methoxycyclohexyl)-8-oxo-8,9-dihydro-7H-purine-6-carboxamide]",360 °C (dec.)
17,"NC(=O)c1nc(-c2cccc(O)c2)nc2c1[nH]c(=O)n2-c1ccccc1-c1ccccc1 [Compound 119, 9-(Biphenyl-2-yl)-2-(3-hydroxyphenyl)-8-oxo-8,9-dihydro-7H-purine-6-carboxamide]",293 to 296 °C
18,"COc1ccccc1-n1c(=O)[nH]c2c(C(N)=O)nc(-c3ccc4nc[nH]c4c3)nc21 [Compound 91, 2-(1H-Benzo[d]imidazol-6-yl)-9-(2-methoxyphenyl)-8-oxo-8,9-dihydro-7H-purine-6-carboxamide]",306 °C
19,"NC(=O)c1nc(-c2cccc(O)c2)nc2c1[nH]c(=O)n2-c1cccc2[nH]ccc12 [Compound 147, 2-(3-Hydroxyphenyl)-9-(1H-indol-4-yl)-8-oxo-8,9-dihydro-7H-purine-6-carboxamide]",> 260 °C
20,"COc1ccccc1-n1c(=O)[nH]c2c(C(N)=O)nc(-c3ccc(C#N)cc3)nc21 [Compound 59, 2-(4-Cyano-phenyl)-9-(2-methoxy-phenyl)-8-oxo-8,9-dihydro-7H-purine-6-carboxamide]",335 to 338 °C
21,"COc1ccccc1-n1c(=O)[nH]c2c(C(N)=O)nc(Nc3cccc(O)c3)nc21 [Compound 45, 2-(3-Hydroxyphenylamino)-9-(2-methoxyphenyl)-8-oxo-8,9-dihydro-7H-purine-6-carboxamide]",190 to 191 °C
22,"COc1ccccc1-n1c(=O)[nH]c2c(C(N)=O)nc(Nc3ccc(O)cc3)nc21 [Compound 46, 2-(4-Hydroxyphenylamino)-9-(2-methoxyphenyl)-8-oxo-8,9-dihydro-7H-purine-6-carboxamide]",223 to 224 °C
23,"NC(=O)c1nc(-c2cccc(O)c2)nc2c1[nH]c(=O)n2-c1ccccc1C1CCCCC1 [Compound 132, 9-(2-Cyclohexylphenyl)-2-(3-hydroxyphenyl)-8-oxo-8,9-dihydro-7H-purine-6-carboxamide]",> 270 °C
24,"NC(=O)c1nc(-c2ccc3nc[nH]c3c2)nc2c1[nH]c(=O)n2C1CCCCC1 [Compound 156, 2-(1H-benzo[d]imidazol-6-yl)-9-cyclohexyl-8-oxo-8,9-dihydro-7H-purine-6-carboxamide]",280 °C (dec.)
